Reference: patent US20240050585A1, “B7-H4-TARGETED ANTIBODY-DRUG CONJUGATES FOR THE TREATMENT OF CANCER” (priority 2022, published 2024)

Key:
[1] = test system: mBR9013 syngeneic breast cancer; assay: Tumor growth response in mBR9013 syngeneic breast cancer mouse model; conditions: for TGI (tumor volume compared to vehicle control): day 15, female FVB/NJ mice
Experimental: Female FVB/NJ mice were implanted subcutaneously with mBR9013 tumor fragments (2-3 mm^3). Animals were randomized into treatment groups when tumor volumes were between 96-277 mm^3 (mean=148 mm^3/group) (n=8/group). […] Vehicle, isotype control conjugate and XMT-1660 were dosed intravenously.

[2] = test system: OV2423 patient derived ovarian cancer; assay: Tumor growth response in OV2423 patient derived ovarian cancer xenograft mouse model; conditions: 4.54/0.150 mg/kg (antibody/payload) intravenously on day 1; Day 22; female BALB/c nude mice
Experimental: Female BALB/c nude mice were implanted subcutaneously with OV2423 patient derived ovarian cancer tumor fragments (˜2-3 mm^3 per mouse). Animals were randomized into treatment groups when tumor volumes were between 101-230 mm^3 (mean=155mm^3/group) (n=8/group). Vehicle, palivizumab isotype control conjugate (prepared as described in US Patent Application No. 2022/0233707A1, 4.54/0.150 mg/kg) and XMT-1660 (4.61/0.150 mg/kg, DAR 6) were dosed intravenously on day 1 (all doses are given by antibody/payload).

Substance: palivizumab isotype control conjugate
- TGI (tumor volume compared to vehicle control) ([1]; 1.51/0.050 mg/kg (antibody/payload) intravenously on day 1): −7.91%
- TGI (tumor volume compared to vehicle control) ([1]; 4.54/0.150 mg/kg (antibody/payload) intravenously on day 1): 32.02%
- body weight loss or clinical observations ([1]; mouse, in vivo): No significant body weight loss or clinical observations
- TGI (tumor volume compared to vehicle control) [2]: 24.8%
